Data set [1] addresses T1, Protein deacetylase HDAC6 (Mus musculus) (UniProt Q9Z2V5).
T1 sequence (whole entry): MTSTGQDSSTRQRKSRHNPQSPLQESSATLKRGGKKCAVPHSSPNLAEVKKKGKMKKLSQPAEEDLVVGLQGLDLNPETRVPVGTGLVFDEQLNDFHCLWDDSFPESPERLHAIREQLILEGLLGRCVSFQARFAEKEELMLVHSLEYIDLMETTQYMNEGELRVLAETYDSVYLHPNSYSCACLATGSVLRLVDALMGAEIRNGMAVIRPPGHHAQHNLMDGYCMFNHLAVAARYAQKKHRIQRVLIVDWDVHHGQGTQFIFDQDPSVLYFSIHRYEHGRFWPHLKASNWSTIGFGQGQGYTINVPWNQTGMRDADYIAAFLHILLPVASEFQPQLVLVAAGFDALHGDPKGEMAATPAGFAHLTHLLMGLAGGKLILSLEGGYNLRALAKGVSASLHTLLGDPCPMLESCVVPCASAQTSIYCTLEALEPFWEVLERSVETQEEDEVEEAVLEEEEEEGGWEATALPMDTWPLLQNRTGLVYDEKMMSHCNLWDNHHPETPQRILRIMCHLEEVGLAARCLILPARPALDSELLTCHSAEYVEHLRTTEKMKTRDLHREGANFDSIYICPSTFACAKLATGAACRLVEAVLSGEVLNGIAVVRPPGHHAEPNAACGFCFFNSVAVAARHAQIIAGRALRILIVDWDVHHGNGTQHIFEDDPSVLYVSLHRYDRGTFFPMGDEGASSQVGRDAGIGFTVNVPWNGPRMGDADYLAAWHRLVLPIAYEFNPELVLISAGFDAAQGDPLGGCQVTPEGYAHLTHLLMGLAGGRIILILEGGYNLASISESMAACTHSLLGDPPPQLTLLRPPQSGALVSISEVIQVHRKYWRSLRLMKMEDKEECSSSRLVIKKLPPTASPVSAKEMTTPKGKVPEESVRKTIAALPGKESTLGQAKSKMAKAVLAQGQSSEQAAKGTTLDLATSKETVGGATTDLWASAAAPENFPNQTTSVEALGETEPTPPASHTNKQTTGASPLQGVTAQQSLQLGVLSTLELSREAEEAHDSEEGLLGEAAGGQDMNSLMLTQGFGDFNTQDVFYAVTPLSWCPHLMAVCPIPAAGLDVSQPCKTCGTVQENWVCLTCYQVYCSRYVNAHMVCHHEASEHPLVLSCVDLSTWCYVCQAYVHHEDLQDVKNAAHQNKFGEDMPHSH
Briefly: In vivo inhibition of HDAC6 in hMFN2-induced CMT2A transgenic mouse model assessed as increase in acetylated tubulin in distal sciatic nerve tissue at 20 mg/kg, ip qd administered for 12 weeks followed by treatment with compound dissolved in PBS/PEG400/Tween80/EtOH (50/35/10/5) wt% as vehicle by Western blot analysis. Type of data set: functional, organism-based. (In general: Immunoblotting shows a protein as a band on a membrane.)

The target of data set [2] is Histone deacetylase 9 (Homo sapiens, UniProt Q9UKV0). Kind of data set: Inhibition of recombinant human HDAC9 using Boc-Lys(TFA)-AMC as substrate preincubated for 10 mins followed by substrate addition and measured after 30 mins by fluorescence-based assay.
The nature of data set [3]: Stability in human pooled liver microsomes assessed as parent compound remaining measured at 60 mins in presence of NADPH by LC-MS/MS analysis. To be noted: pooled liver microsomes, read-out: Stabilty. Type of data set: ADME, Microsome. In general terms: Liver microsomes are vesicles of endoplasmic reticulum, rich in cytochrome P450 enzymes.
A short description of data set [4]: Protein binding in human plasma. Type of data set: ADME, cell-free. To be noted: read-out: PPB (converted).
The nature of data set [5]: Genotoxicity in Salmonella typhimurium TA1535 at 5 to 100 uM in presence of liver S9 fraction by Ames test. It counts as toxicity. To be noted: salmonella enterica subsp. enterica serovar typhimurium, s9, 100 µM; dose 5-100 µM. (In the Ames test, an excess of revertant colonies over the control signals mutagenicity.)
In data set [6] the target is T1, Protein deacetylase HDAC6 (Mus musculus). Kind of data set: In vivo inhibition of HDAC6 in hMFN2-induced CMT2A transgenic mouse model assessed as increase in acetylated tubulin in distal sciatic nerve tissue at 20 mg/kg, ip qd administered for 22 weeks when treated prior with compound dissolved in PBS/PEG400/Tween80/EtOH (50/35/10/5) wt% as vehicle by Western blot analysis. It counts as functional, organism-based.

Data set [7] can be described thus: Genotoxicity in Salmonella typhimurium TA1537 at 5 to 100 uM in presence of liver S9 fraction by Ames test. It counts as toxicity. The settings on record: salmonella enterica subsp. enterica serovar typhimurium, s9, 100 µM; dose 5-100 µM.
Data set [8] in a line: Genotoxicity in Salmonella typhimurium TA1535 at 5 to 100 uM in absence of liver S9 fraction by Ames test. Type of data set: toxicity. To be noted: salmonella enterica subsp. enterica serovar typhimurium, s9, 100 µM; dose 5-100 µM.
Data set [9] can be described thus: Genotoxicity in Salmonella typhimurium TA98 at 5 to 100 uM in presence of liver S9 fraction by Ames test. It counts as toxicity. The settings on record: salmonella enterica subsp. enterica serovar typhimurium, s9, 100 µM; dose 5-100 µM.

For orientation: pIC50 means the negative decadic logarithm of the IC50, by convention in mol/L.

pIC50: −log10 of the molar value. Calls of active or inactive are those of the source. The rule behind the calls is not given here.

Sequence of Histone deacetylase 9 (Q9UKV0 whole entry): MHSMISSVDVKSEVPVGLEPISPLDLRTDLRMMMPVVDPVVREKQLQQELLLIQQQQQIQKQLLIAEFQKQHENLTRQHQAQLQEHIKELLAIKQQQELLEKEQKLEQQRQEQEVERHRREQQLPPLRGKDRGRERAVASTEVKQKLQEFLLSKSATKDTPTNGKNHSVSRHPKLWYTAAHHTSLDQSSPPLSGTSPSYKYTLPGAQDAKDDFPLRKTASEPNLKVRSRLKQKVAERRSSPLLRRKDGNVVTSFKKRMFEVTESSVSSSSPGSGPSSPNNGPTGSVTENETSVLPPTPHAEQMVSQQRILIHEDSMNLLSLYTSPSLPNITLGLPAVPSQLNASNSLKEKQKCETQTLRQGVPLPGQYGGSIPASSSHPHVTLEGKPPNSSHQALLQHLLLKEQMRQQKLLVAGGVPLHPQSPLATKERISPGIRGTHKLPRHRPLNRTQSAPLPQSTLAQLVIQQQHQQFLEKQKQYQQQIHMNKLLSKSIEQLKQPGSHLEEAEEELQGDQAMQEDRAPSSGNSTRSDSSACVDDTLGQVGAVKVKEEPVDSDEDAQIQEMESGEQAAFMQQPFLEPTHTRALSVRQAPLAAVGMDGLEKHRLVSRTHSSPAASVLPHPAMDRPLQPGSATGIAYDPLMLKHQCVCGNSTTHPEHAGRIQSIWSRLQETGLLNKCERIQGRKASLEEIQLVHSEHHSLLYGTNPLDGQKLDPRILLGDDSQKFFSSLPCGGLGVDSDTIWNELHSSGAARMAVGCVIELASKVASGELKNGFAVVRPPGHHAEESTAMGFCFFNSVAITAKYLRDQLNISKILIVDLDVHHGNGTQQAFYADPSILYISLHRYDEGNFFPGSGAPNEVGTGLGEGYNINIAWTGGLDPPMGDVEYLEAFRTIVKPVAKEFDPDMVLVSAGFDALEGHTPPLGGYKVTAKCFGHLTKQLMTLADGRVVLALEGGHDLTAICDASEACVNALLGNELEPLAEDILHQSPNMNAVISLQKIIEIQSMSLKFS

For `NC(=O)c1ccc2c(c1)CCCN2Cc1ccc(C(=O)NO)cc1`, the inhibition entry in [1] is “Active”. Also, the negative logarithm of the IC50 (pIC50) in data set [2] was 6.19. In addition, the remaining at 1 h in data set [3] came out at 76.3%. In data set [4], the fraction unbound is 0.142. Besides, the Activity result in data set [5], in data set [7], in [8] and in data set [9] was “Non-Toxic” throughout. In addition, the inhibition result in [6] was “inactive”.

Values taken from ChEMBL document CHEMBL4823254, “Tetrahydroquinoline-Capped Histone Deacetylase 6 Inhibitor SW-101 Ameliorates Pathological Phenotypes in a Charcot-Marie-Tooth Type 2A Mouse Model” (J Med Chem, 2021).
